Columns and labels:
guinea pig right atrium = experiment: Atrial Test in Guinea Pigs (inhibition of histamine-stimulated heart rate, isolated right atrium); details: Cavia porcellus; test compound 1 μg/ml; 10^-5 M histamine; heart rate vs control
Method: Atrial Test in Guinea Pigs
The guinea pig right atrium in a spontaneous palpitation was excised, suspended in 40 ml of Krebs-Henselite solution, and a tension of 1 g was loaded between the atrium preparation and a transducer. The solution was aerated at a fixed rate at 37° C. 10^-5 M histamine was added, and the heart rate was recorded as control. A test compound was added to a concentration of 1 μg/ml and then, after 3 minutes, 10^-5 M histamine was added, and the heart rate was again recorded. The inhibitory rate (R %) compared to the control group was calculated according to the following equation: […]
A: The heart rate of the control group
B: The heart rate of the group to which the drug was administered

gastric acid output = experiment: Inhibition of Gastric Secretions (Shay's method, pylorus-ligated rats); assay type: in vivo, rat (male SD); details: Rattus norvegicus, intraduodenal, 4 hours
Method: Inhibition of Gastric Secretions
This test was carried out according to Shay's method [H. Shay: Gastroenterology 5, 43 (1945)] using male SD rats (5 weeks old). The rats were divided into groups, each group containing 5 rats. The animals were fasted for 24 hours before the beginning of the experiment. They were then anesthetized with ether, the abdominal region was opened, and the pylorus was ligated. A test compound suspended in a 0.5% w/v aqueous carboxymethylcellulose (CMC) solution was administered intraduodenally. After 4 hours, the rat was sacrificed by deep anesthesia with ether, and the stomach was excised. The gastric juice was removed, centrifuged for 15 minutes at 2500 rpm, and then 0.1 ml of the supernatant was taken out and titrated until the end point of neutralization with a 0.01N aqueous solution of sodium hydroxide, to determine the total gastric acidity. The amount of gastric acid secreted per hour (μEq/hr) was calculated, and the inhibition rate (R %) to the control group was calculated according to the following equation.
A: The gastric acid output of the control group (μEq/hr)
B: The amount of gastric acid output of the drug administered group (μEq/hr)

gastric mucosa = experiment: HCl-Ethanol-Induced Ulcer Test in Rats; assay type: in vivo, rat (male SD); details: dose 50 mg/kg, oral, 60 minutes before HCl-ethanol
Method: HCl-Ethanol-Induced Ulcer Test in Rats
Male SD rats (6 to 8 weeks old) were fasted for 24 hours before the beginning of the experiment. Each was then administered orally with 1 ml of a 60% ethanol solution containing 150 mM of hydrogen chloride. After 1 hour, the stomach was excised. Into the stomach was injected 10 ml of a 0.5% formaldehyde solution, and the stomach was fixed for 20 minutes. The injured area (mm^2) occuring on the surface of the gastric mucosa was measured, and the total injured area per rat was regarded as the injury index.
Test compounds and 0.5% CMC, as the control, were orally administered each at a dose of 0.1 ml/100 g, 60 minutes before treatment with the HCl-ethanol solution.
The ulcer formation inhibitory rate (R %) was calculated by the following equation.
A: The injury index of the control group (mm^2)
B: The injury index of the drug administered group (mm^2)

Row | Structure (SMILES) | inhibition at 1 µg/mL (guinea pig right atrium) [%] | inhibition in vivo at 50 mg/kg (gastric acid output) [%] | % Inhibition (ulcer formation) (gastric mucosa) [%] | inhibition in vivo at 12.5 mg/kg (gastric acid output) [%] | inhibition in vivo at 25 mg/kg (gastric acid output) [%]
1 | O=C(CSCCO)NCCCOc1cccc(CN2CCCCC2)c1 [Compound A, reference compound] | 68 | -67 | 39 |  | 
2 | O=C(CSCc1ccco1)NC/C=C\COc1cc(CN2CCCCC2)ccn1 [Compound B, reference compound] | 99 | -40 | 97 |  | 
3 | O=C(CSCCO)NC/C=C\COc1cc(CN2CCCCC2)ccn1 [Example 1, N-[4-(4-piperidinomethyl-2-pyridyloxy)-cis-2-butenyl]-2-(2-hydroxyethylthio)acetamide] | 86 | 63 |  |  | 
4 | CC(=O)OCCSCC(=O)NC/C=C\COc1cc(CN2CCCCC2)ccn1 [Example 2, N-[4-(4-Piperidinomethyl-2-pyridyloxy)-cis-2-butenyl]-2-(2-acetoxyethylthio)acetamide] | 90 | 52 | 100 |  | 
5 | CC(=O)OCCSCCCC(=O)NC/C=C\COc1cc(CN2CCCCC2)ccn1 [Example 6, N-[4-(4-Piperidinomethyl-2-pyridyloxy)-cis-2-butenyl]-4-(2-acetoxyethylthio)butyramide] | 86 | 73 |  |  | 
6 | CCC(=O)OCCSCC(=O)NC/C=C\COc1cc(CN2CCCCC2)ccn1 [Example 7, N-[4-(4-Piperidinomethyl-2-pyridyloxy)-cis-2-butenyl]-2-(2-propionyloxyethylthio)acetamide] |  |  | 61 | 51 | 63
7 | O=C(NC/C=C\COc1cc(CN2CCCCC2)ccn1)c1cn[nH]c1 [Example 13, N-[4-(4-piperidinomethyl-2-pyridyloxy)-cis-2-butenyl]pyrazole-4-carboxamide] | 84 | 80 | 87 |  | 62
8 | Nc1n[nH]cc1C(=O)NC/C=C\COc1cc(CN2CCCCC2)ccn1 [Example 17, 3-Amino-N-[4-(4-piperidinomethyl-2-pyridyloxy) -cis-2-butenyl]pyrazole-4-carboxamide] | 83 | 71 |  |  | 73
9 | O=C(NC/C=C\COc1cc(CN2CCCCC2)ccn1)c1cscn1 [Example 26, N-[4-(4-Piperidinomethyl-2-pyridyloxy) -cis-2-butenyl]thiazole-4-carboxamide] | 80 |  |  |  | 
10 | O=C(CCCSc1ncccn1)NC/C=C\COc1cc(CN2CCCCC2)ccn1 [Example 34, N-[4-(4-Piperidinomethyl-2-pyridyloxy) -cis-2-butenyl]-4-(2-pyrimidinylthio) butyramide] | 94 |  | 79 | 61 | 86
11 | Cc1nnc(SCCCC(=O)NC/C=C\COc2cc(CN3CCCCC3)ccn2)o1 [Example 37, N-[4-(4-Piperidinomethyl-2-pyridyloxy)-cis-2-butenyl]-4-(5-methyl-1,3,4-oxadiazol-2-ylthio)butyramide] | 99 | 74 |  |  | 
12 | O=C(CCCSc1nc[nH]n1)NC/C=C\COc1cc(CN2CCCCC2)ccn1 [Example 41, N-[4-(4-Piperidinomethyl-2-pyridyloxy)-cis-2-butenyl]-4-(1,2,4-triazol-3-ylthio)butyramide] | 85 | 76 |  |  | 61
13 | CC(C)NC(=O)NC/C=C\COc1cc(CN2CCCCC2)ccn1 [Example 48, N-[4-(4-piperidinomethyl-2-pyridyloxy) -cis-2-butenyl]-N'-isopropylurea] | 81 | 71 | 78 |  | 
14 | O=C(NC/C=C\COc1cc(CN2CCCCC2)ccn1)NC1CCC1 [Example 58, N-Cyclobutyl-N'-[4-(4-piperidinomethyl-2-pyridyloxy) -cis-2-butenyl]urea] |  | 56 |  |  | 
